Consider twelve compounds from ChEMBL document CHEMBL1201862, “PubChem BioAssay data set” (2004).

Some test systems named below: RXF 393; SF-539; RPMI-8226; 786-0; TK-10; M14; SK-MEL-2; CCRF-CEM; NCI-H522; MDA-N; OVCAR-5; IGROV-1; CAKI-1; NCI-H460; K562; KM12; SF-268; T47D; BT-549.
Holding throughout (assay): NCI tumour cell line growth inhibition, 48 h

The structures appear in SMILES notation.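 1) Cells in 96-well plates. 2) Compound, 48 h, 5 concentrations. 3) Linear interpolation between surrounding doses. 4) Unreached endpoint = highest concentration. The concentration for 50% growth inhibition is given as GI50.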 Activity calls are given as the source filed them. No stated cut-off is given here; in the data, active = GI50 up to about 1.1 µM and inactive = higher.

For the compound `CC1=C2C(=O)c3ccccc3C(=O)[C@H]2C[C@@H](N2CCCCCC2=O)O1`, the GI50 is 27 µM (inactive) with RXF 393; 19 µM (inactive) with SF-539; 14.6 µM (inactive) in the experiment with RPMI-8226; 18.4 µM (inactive) in the experiment with 786-0; 23 µM (inactive) in the experiment on TK-10; 15.4 µM (inactive) in the experiment with M14. Moreover, the GI50 was 23.1 µM (inactive) with SK-MEL-2; 3.44 µM (inactive) in the experiment on CCRF-CEM; 19.9 µM (inactive) in the experiment with NCI-H522; 16 µM (inactive) with MDA-N; 16.7 µM (inactive) in the experiment with OVCAR-5; 16.4 µM (inactive) with IGROV-1. Further, the GI50 with CAKI-1 is 16.9 µM (inactive); in the experiment with NCI-H460, 18.8 µM (inactive); with K562, 19.8 µM (inactive); in the experiment on KM12, 16.7 µM (inactive); in the experiment with SF-268 it was 20.9 µM (inactive); in the experiment on T47D, 20.8 µM (inactive).
On to `COC(=O)c1c[nH]c(=O)[nH]c1=O` [ISOOROTIC ACID METHYL ESTER], for which the GI50 in the experiment on SF-539, with RPMI-8226, in the experiment with 786-0, with TK-10, in the experiment with M14 and with SK-MEL-2 was > 100 µM (inactive) each time. The GI50 in the experiment on CCRF-CEM, with NCI-H522, in the experiment with MDA-N, in the experiment on OVCAR-5, in the experiment on IGROV-1 and in the experiment on CAKI-1 was > 100 µM (inactive) each time. Moreover, the GI50 with NCI-H460, with K562, in the experiment with KM12, with SF-268 and with T47D was > 100 µM (inactive) in each case.
For the compound `CC(=O)O/N=C1\C=Cc2c(no[n+]2[O-])C1=O`, the GI50 in the experiment on RXF 393 is 15.2 µM (inactive); with SF-539, 17.3 µM (inactive); in the experiment with RPMI-8226, 30 µM (inactive); in the experiment on 786-0 it was 19.3 µM (inactive); in the experiment on TK-10 it was 15.6 µM (inactive); with M14 it was 18.6 µM (inactive). Besides, the GI50 in the experiment on SK-MEL-2 was 17.8 µM (inactive); in the experiment with CCRF-CEM, 3.65 µM (inactive); in the experiment with NCI-H522, 17 µM (inactive); in the experiment on MDA-N, 17.6 µM (inactive); in the experiment on OVCAR-5, 18.3 µM (inactive); in the experiment on IGROV-1, 16.4 µM (inactive). Besides, the GI50 in the experiment with CAKI-1 was 20.5 µM (inactive); in the experiment with NCI-H460, 34.7 µM (inactive); in the experiment with K562, 35 µM (inactive); with KM12 it was 18 µM (inactive); in the experiment on SF-268, 20.8 µM (inactive); in the experiment with T47D, 25.6 µM (inactive).
On to `[N-]=[N+]=CC(=O)OC1CCc2ccccc21` (stereo not drawn), for which the GI50 was 60.3 µM (inactive) in the experiment with RXF 393; > 100 µM (inactive) with RPMI-8226; > 100 µM (inactive) with BT-549; 61.9 µM (inactive) with 786-0; 59.6 µM (inactive) in the experiment with TK-10; > 100 µM (inactive) with SK-MEL-2. The GI50 in the experiment on CCRF-CEM is > 10 µM (inactive); in the experiment on NCI-H522 it was > 100 µM (inactive); in the experiment with MDA-N, > 100 µM (inactive); with OVCAR-5, 46.5 µM (inactive); in the experiment on IGROV-1 it was > 100 µM (inactive); in the experiment with CAKI-1, 26 µM (inactive). The GI50 in the experiment on NCI-H460 is 47.8 µM (inactive); in the experiment with K562, > 100 µM (inactive); with SF-268 it was > 100 µM (inactive).
Take `S=C(N/N=C\C=N/NC(=S)N1CCCCC1)N1CCCCC1`: the GI50 was 0.296 µM (active) in the experiment on RXF 393; 0.435 µM (active) in the experiment on SF-539; 0.433 µM (active) with RPMI-8226; 0.525 µM (active) in the experiment on 786-0; 1.61 µM (inactive) in the experiment with TK-10; 0.208 µM (active) in the experiment with M14. Moreover, the GI50 in the experiment with NCI-H522 is 0.608 µM (active); in the experiment on MDA-N, > 26.1 µM (inactive); in the experiment on OVCAR-5, > 29.3 µM (inactive); with IGROV-1 it was 0.664 µM (active); in the experiment with CAKI-1, 0.619 µM (active); in the experiment with NCI-H460, < 0.0151 µM (active). The GI50 in the experiment on K562 is 0.547 µM (active); in the experiment with KM12, 0.54 µM (active); with SF-268, 0.231 µM (active); in the experiment with T47D, 0.287 µM (active).
As to `CC(=O)O[C@H]1CCC2[C@@H]3CCC4Nc5[nH]ncc5C[C@]4(C)C3CC[C@@]21C` (stereo partly drawn), the GI50 in the experiment on RXF 393 is > 100 µM (inactive); in the experiment on SF-539 it was > 100 µM (inactive); in the experiment with RPMI-8226, 31.9 µM (inactive); with 786-0 it was > 100 µM (inactive); in the experiment on TK-10 it was 74.6 µM (inactive); with M14, 21.4 µM (inactive). Moreover, the GI50 in the experiment with SK-MEL-2 is > 100 µM (inactive); in the experiment on CCRF-CEM, 22.4 µM (inactive); with NCI-H522 it was 21.4 µM (inactive); in the experiment on OVCAR-5 it was > 100 µM (inactive); in the experiment on IGROV-1, > 100 µM (inactive); in the experiment with CAKI-1 it was 45.1 µM (inactive). Also, the GI50 is > 100 µM (inactive) in the experiment with NCI-H460, 36.3 µM (inactive) with K562, 64.1 µM (inactive) in the experiment with KM12 and > 100 µM (inactive) in the experiment with SF-268.
For `CC(C)=CCC/C(C)=C/CCC1(C)C2COC(=O)C21` (stereo not drawn), the GI50 in the experiment with RXF 393 was > 100 µM (inactive); with BT-549, 49.8 µM (inactive); in the experiment with 786-0 it was > 100 µM (inactive); in the experiment with TK-10, > 100 µM (inactive); with SK-MEL-2, 70.5 µM (inactive); in the experiment on CCRF-CEM it was 26.9 µM (inactive). Also, the GI50 is 53.2 µM (inactive) in the experiment with NCI-H522; 54.7 µM (inactive) in the experiment with MDA-N; > 100 µM (inactive) with OVCAR-5; > 100 µM (inactive) with IGROV-1; > 100 µM (inactive) in the experiment on CAKI-1; 36.2 µM (inactive) in the experiment on NCI-H460. Besides, the GI50 in the experiment on K562 was 22.6 µM (inactive); in the experiment on KM12 it was 34.9 µM (inactive); in the experiment with SF-268 it was > 100 µM (inactive).
Take `CCC(CCCN)Nc1cc(OC)cc2c(C)ccnc12` (stereo not drawn): the GI50 with RXF 393 was 13.8 µM (inactive); in the experiment with SF-539, 18.4 µM (inactive); in the experiment with BT-549 it was 14.9 µM (inactive); in the experiment on 786-0 it was 15.4 µM (inactive); in the experiment on TK-10 it was 17.7 µM (inactive); with M14 it was 15.2 µM (inactive). The GI50 in the experiment on SK-MEL-2 is 20.8 µM (inactive); in the experiment with CCRF-CEM it was 18.4 µM (inactive); in the experiment on MDA-N, 17.5 µM (inactive); in the experiment on OVCAR-5 it was 17.7 µM (inactive); in the experiment on IGROV-1, 16.8 µM (inactive); with CAKI-1, 15.5 µM (inactive). Also, the GI50 with NCI-H460 was 17.7 µM (inactive); with K562 it was 15 µM (inactive); in the experiment with KM12, 14.9 µM (inactive); in the experiment on SF-268, 15.3 µM (inactive).
Consider `O=C(CCc1nnc2s/c(=C\c3ccc(Cl)c(Cl)c3)c(=O)n12)Nc1ccc(Cl)c(Cl)c1`, for which the GI50 with RXF 393 was 28.8 µM (inactive); in the experiment on SF-539, 51.8 µM (inactive); in the experiment on RPMI-8226 it was 20.4 µM (inactive); with 786-0 it was > 100 µM (inactive); in the experiment on TK-10, > 100 µM (inactive); in the experiment on M14 it was > 100 µM (inactive). Further, the GI50 in the experiment with CCRF-CEM is 22.5 µM (inactive); in the experiment on NCI-H522 it was 25.1 µM (inactive); in the experiment with OVCAR-5 it was > 100 µM (inactive); in the experiment with IGROV-1, 44.2 µM (inactive); in the experiment with CAKI-1, > 100 µM (inactive); in the experiment with NCI-H460, > 100 µM (inactive). Moreover, the values for the GI50 in the experiment on K562, with KM12 and in the experiment on SF-268 were 72.8 µM (inactive), 43.4 µM (inactive) and 55.5 µM (inactive), respectively.
As to `O=C(CC(C(=O)c1ccco1)c1ccco1)c1ccco1` (stereo not drawn), the GI50 with RXF 393, with SF-539, with RPMI-8226, with 786-0, in the experiment with TK-10 and in the experiment on M14 was > 100 µM (inactive) each time. For the same compound, the GI50 in the experiment with CCRF-CEM is 71.1 µM (inactive); in the experiment with NCI-H522 it was > 100 µM (inactive); in the experiment on MDA-N, > 100 µM (inactive); in the experiment with OVCAR-5 it was > 100 µM (inactive); in the experiment with IGROV-1, > 100 µM (inactive); in the experiment on CAKI-1, > 100 µM (inactive). For the same compound, the GI50 with NCI-H460, in the experiment with K562, in the experiment on KM12, in the experiment with SF-268 and in the experiment with T47D was > 100 µM (inactive) throughout.
Regarding `CC1=NN(c2nc(N)nc(-c3ccccc3S(N)(=O)=O)n2)C(C)(C)C1`, the GI50 in the experiment on RXF 393 is 14 µM (inactive); with SF-539 it was 27.4 µM (inactive); with RPMI-8226, 27.2 µM (inactive); in the experiment with 786-0, 8.79 µM (inactive); in the experiment on TK-10, 9.51 µM (inactive); in the experiment with M14 it was 6.7 µM (inactive). Moreover, the GI50 was 9.2 µM (inactive) in the experiment with SK-MEL-2; 9.42 µM (inactive) in the experiment on CCRF-CEM; 24.3 µM (inactive) in the experiment on NCI-H522; 26.6 µM (inactive) in the experiment with MDA-N; 27.2 µM (inactive) with OVCAR-5; 22.6 µM (inactive) in the experiment with IGROV-1. For the same compound, the GI50 in the experiment with CAKI-1 is 3.37 µM (inactive); with NCI-H460, 5.07 µM (inactive); with K562, 35.2 µM (inactive); in the experiment with KM12, 29.8 µM (inactive); with SF-268, 8.24 µM (inactive); in the experiment on T47D, 23.8 µM (inactive).
With `CC1CCOc2ccc(cc2)/C=N\c2ccc(cc2)-c2ccc(cc2)/N=C\c2ccc(cc2)OCC1`, the GI50 in the experiment with SF-539, in the experiment with RPMI-8226, with BT-549, with 786-0, with TK-10 and in the experiment on M14 was > 100 µM (inactive) throughout. Moreover, the GI50 in the experiment on SK-MEL-2, in the experiment with CCRF-CEM, in the experiment with NCI-H522, in the experiment with MDA-N, with OVCAR-5 and in the experiment with IGROV-1 was > 100 µM (inactive) in each case. Also, the GI50 with CAKI-1, with NCI-H460, in the experiment with K562, with KM12 and in the experiment with SF-268 was > 100 µM (inactive) in each case.
